Test results reported in patent publication US20160015725A1, “METHODS OF CONTROLLING TUMOR BIOENERGETICS NETWORKS” (THE WISTAR INSTITUTE OF ANATOMY AND BIOLOGY, priority 2012, published 2016).

Assays:
[1] = system: FF2508 or MRC5 normal primary human fibroblasts; test: ATP production in normal fibroblasts; format: cell-based
Procedure: Intracellular ATP concentrations were measured by the luciferin—luciferase method using an ATP measuring kit (Biochain). The ATP concentration in each extract was measured with a microplate luminometer (Beckman Coulter) against standard ATP solutions used as reference. In some experiments, PC3 or LN229 cells were preincubated with sodium pyruvate for 7 h in the presence of vehicle or Gamitrinib before determination of ATP production.

LN229 cells = test: Glucose utilization; format: cell-based, human; settings: tumor cells
Procedure: Glucose concentrations in cell culture media were determined using a Glucose kit (Sigma-Aldrich). Briefly, 2×10^6 cells were seeded in 10 cm2 tissue culture dishes for 48 h, mixed with DMEM in the presence of Gamitrinib or 17-AAG (0-20 μM) for additional 4 h, and 200 μl aliquots of culture medium were incubated with 1 ml assay mixture, containing 1.5 mM NAD, 1 mM ATP, 1.0 U/ml Hexokinase, and 1.0 U/ml G6PDH. The glucose concentration under the various conditions was determined by measuring the amount of reduced NAD to NADH by G6PDH, and quantified spectrophotometrically at 340 nm wavelength. Extracellular lactate was measured by a colorometric assay kit (Abcam). Culture media from LN229 cells was replaced with DMEM containing vehicle (DMSO) or Gamitrinib (5 μM) for 5 h. Changes in lactate concentrations were measured by analysis of lactate-dependent conversion of NADP to NADPH in the presence of excess lactate dehydrogenase (LDH), and quantified by absorbance at 450 nm. All assays were performed at 25° C. under conditions of linear lactate-limited NADPH formation.

hexokinase-II (HK-II) = test: Subcellular fractionation and Western blotting of hexokinases; format: cell-based, human; settings: LN229, 5 h
Procedure: Mitochondrial fractions were isolated from Gamitrinib treated LN229 cells (0-20 μM for 5 h) using an ApoAlert™ cell fractionation kit (CLONTECH). Briefly, LN229 cells were mechanically disrupted by 60 strokes with a Dounce homogenizer in isolation buffer containing 1 mM DTT plus protease inhibitor cocktail. Cell debris was removed by centrifugation at 700 g for 10 min. The supernatant was further centrifuged at 10,000 g for 25 min, and supernantants or mitochondrial pellets were processed for further analysis.
(§1) For Western blotting, protein lysates were prepared from the different cell types in RIPA Buffer (150 mM NaCl, 1.0% Triton X-100, 0.5% sodium deoxycholate, 0.1% SDS, 50 mM Tris, pH 8.0) containing EDTA-free Protease Inhibitor Cocktail (Roche) and Phosphatase Inhibitor Cocktail 2 and 3 (Sigma Aldrich). Equal amounts of protein lysates were separated by SDS gel electrophoresis, transferred to PVDF membranes and incubated with primary antibodies of various specificities. Protein bands were detected by chemiluminescence.

hexokinase = test: Hexokinase activity in mitochondrial fractions of treated cells; format: cell-based, human; settings: LN229 mitochondrial fractions, 5 h
Procedure: HK activity in LN229 cells was measured as the total glucosephosphorylating activity using a standard G6PDH-coupled assay kit (BioVision). Mitochondria isolated from Gamitrinib- or 17-AAG-treated LN229 cells, or cultures transfected with various siRNAs were homogenized in cold PBS, followed by centrifugation at 1000 g for 10 min at 4° C. HK activity was determined by analysis of G6P-dependent conversion of NADP to NADPH in the presence of excess […] in the presence of 2 mM glucose, and quantification of absorbance at 450 nm. All assays were performed at 25° C. under conditions of linear HK-limited NADPH formation.

[2] = system: V600E mutant BRAF melanoma cells; test: AMPK and autophagy signaling in mutant BRAF melanoma cells; format: cell-based, human
Source text: Human glioblastoma LN229, prostate adenocarcinoma PC3 or LNCaP cells, or normal NIH3T3 fibroblasts were obtained from the American Tissue Culture Collection (ATCC, Manassas, Va.), and maintained in culture according to the supplier's specifications. The following wild type (WT) BRAF N-Ras mutant melanoma cells WM852 and WM1366, and melanoma cells carrying a V600E activating mutation in the BRAF oncogene, 451Lu, Me11617 and WM983B were used in this study. WT or CypD knockout Mouse Embryonic Fibroblasts (MEFs, CypD−/−) were characterized earlier 40. In some experiments, CypD−/− MEFs were stably transfected with control plasmid, WT CypD or peptidyl prolyl isomerase (PPIase)-deficient H168Q CypD mutant cDNA, and analyzed for differential recruitment of HK-II to mitochondrial or cytosolic fractions.
as §1
Samples were imaged using a Leica TCS SP2 confocal microscope. For determination of autophagy, cells under the various conditions tested were harvested after 12 h, and analyzed with an antibody to […] (LC3) by Western blotting.

TRAMP mice prostate = test: Immunohistochemistry of TRAMP prostate tissues; format: in vivo, mouse; settings: PIN lesions
Procedure: The preclinical studies to test the efficacy and safety of Gamitrinib in a genetic mouse model of prostate cancer in immunocompetent TRAMP (Transgenic Adenocarcinoma of the Mouse Prostate) mice have been described (Kang et al., 2011). In this model, Gamitrinib was given systemically (5 mg/kg i.p. with the schedule 3 d on/2 d off) to TRAMP mice starting at 21.9 weeks of age (group 1) or 14.7 weeks of age (group 2), for 3 weeks or 5 weeks, respectively. In the control group, TRAMP mice of 24 weeks of age received vehicle. At the end of the experiment, animals in the vehicle or Gamitrinib groups were sacrificed and analyzed for localized and metastatic prostate cancer of adenocarcinoma or neuroendocrine histologic type (Kang et al., 2011).
For analysis of patient-derived or TRAMP tissues, slides were microwaved for 35 min in EDTA solution. Sections (4-μm thick) were cut from all TMA blocks and TRAMP-derived prostatic tumors and stained with a rabbit polyclonal antibody to Grp78 (1:1000) for 30 min at 22° C. IHC was performed using a Ventana BenchMark Ultra autostainer (Ventana Medical Systems), with the ultraView Universal DAB Detection Kit (Ventana) for detection of antibody reactivity. All slides were counterstained with hematoxylin Immunoreactivity for Grp78 was evaluated by two pathologists (S.F. and S.B.) and independently scored for cytoplasmic localization. When discrepancies in scoring occurred, a consensus interpretation was reached after re-examination. The percentage of immunoreactive epithelial cells was determined and assigned to one of the following four categories: 0, (0%); 1, (1%-9%); 2, (10%-49%) and 3, (50%-100%). The intensity of immunostaining was scored as absent (0), mild (1), moderate (2) or strong (3). In the case of TMA, the two parameters were multiplied to generate a weighted score for each case that ranged from 0 to 9. Cases with weighted score 0 were defined as negative. Among AdCa samples in the series under investigation, 17 cases were negative for Grp78 expression, whereas 0 cases of SCC were Grp78-negative. […]

In the case of `CO[C@H]1/C=C\C=C(/C)C(=O)NC2=CC(=O)C(NCCCCCC[P+](c3ccccc3)(c3ccccc3)c3ccccc3)=C(C[C@@H](C)C[C@H](OC)[C@H](O)[C@@H](C)/C=C(\C)[C@@H]1OC(N)=O)C2=O` [Gamitrinib], the ATP production [1] is reported as “did not change ATP production”, the glucose utilization (LN229 cells) is reported as “reduced glucose utilization” and the “HK-II localization (mitochondria vs cytosol)” value (hexokinase-II (HK-II)) is reported as “concentration-dependent release of hexokinase-II (HKII) from mitochondria”. The hexokinase activity (hexokinase) was “a decrease in hexokinase activity”, the autophagy ([2]; BRAF mutant cells) was “did not adaptively increase autophagy” and the AMPK activation ([2]; BRAF mutant melanoma cells) was “failed to activate AMPK”. For the same compound, the GRP78 expression (TRAMP mice prostate) was “upregulation of GRP78”, the “autophagy, LC3 conversion” value (TRAMP mice prostate) was “induction of autophagy, i.e. LC3 conversion” and the “phosphorylated AMPK expression” value (TRAMP mice prostate) was “increased expression of phosphorylated AMPK”.
